Data on 18 compounds can be found in ChEMBL document CHEMBL6127095, “Isoxazole compounds: Unveiling the synthetic strategy, in-silico SAR & toxicity studies and future perspective as PARP inhibitor in cancer therapy” (Eur J Med Chem, 2024).

Series [1] in a line: Toxicity in mouse assessed as lethal dose. The following applies: in vivo.
The target in series [2] is Epidermal growth factor receptor (Homo sapiens, UniProt P00533). Put plainly: Inhibition of EGFR (unknown origin) using TK as substrate incubated for 30 mins by HTRF assay. (In general: In TR-FRET formats the signal depends on donor and acceptor labels being close together.)
In series [3] the test system is MCF7. In words: Antiproliferative activity against human MCF7 cells assessed as reduction in cell viability incubated for 48 hrs by MTT assay. Format: functional, cell-based. The following applies: MCF7, 48 h. (In general: Tetrazolium dyes change colour on reduction, which living cells bring about.)
Series [4] deals with MCF7. In words: Antitumor activity against human MCF7 cells xenografted in BALB/c nude mouse assessed as tumor growth inhibition at 30 mg/kg, iv administered for 15 days. Format: functional. Also noted: scale not given: the % may be the effect or the level left. Conditions: time 15 day.
Series [5] deals with PC-3. In words: Antiproliferative activity against human PC-3 cells assessed as reduction in cell viability incubated for 24 hrs by MTT assay. Format: functional, cell-based. Conditions: PC-3, 24 h.
Series [6] relates to MCF7. In words: Anticancer activity against human MCF7 cells assessed as inhibition of cell growth incubated for 24 hrs by MTT assay. The following applies: MCF7, 24 h. In kind it is functional, cell-based.
Another series has as its system 4T1. Put plainly: Cytotoxicity against mouse 4T1 cells assessed as inhibition of cell proliferation incubated for 72 hrs by MTT assay. In kind it is functional, cell-based. The following applies: 4T1, 72 h.
The subject of series [7] is PC-3. In words: Anticancer activity against human PC-3 cells assessed as inhibition of cell growth incubated for 24 hrs by MTT assay. In kind it is functional, cell-based. Conditions: PC-3, 24 h.
Series [8] concerns the target Poly [ADP-ribose] polymerase 1 (Homo sapiens, UniProt P09874). Put plainly: Inhibition of PARP-1 (unknown origin).
A further series has as its system HepG2. Put plainly: Antiproliferative activity against human HepG2 cells assessed as reduction in cell viability after 24 hrs by MTT assay. Format: functional, cell-based. Conditions: HepG2, 24 h.
The next series deals with Huh-7. In words: Antiproliferative activity against human Huh-7 cells assessed as reduction in cell growth. In kind it is functional, cell-based.
The target in another series is Heat shock protein HSP90 (Homo sapiens, UniProt P07900+P08238). In words: Inhibition of HSP90 (unknown origin) ATPase activity. Format: protein assay.
In the next series the test system is K562. In words: Antiproliferative activity against human K562 cells assessed as reduction in cell viability after 72 hrs by MTT assay. Format: functional, cell-based. Conditions: K562, 72 h.
The test system of series [9] is MDA-MB-231. Put plainly: Anticancer activity against human MDA-MB-231 cells assessed as reduction in cell viability measured for 48 hrs by MTT assay. In kind it is functional, cell-based. The following applies: MDA-MB-231, 48 h.
The test system of series [10] is MDA-MB-231. In words: Growth inhibition of human MDA-MB-231 cells. In kind it is functional.
Series [11] relates to MCF7. In words: Growth inhibition of human MCF7 cells incubated fro 48 hrs by SRB assay. Format: functional. In general terms: The SRB assay estimates cell density from bound dye.
Series [12] concerns PC-3. In words: Growth inhibition of human PC-3 cells measured for 48 hrs by SRB assay. Format: functional.
The next series has as its system DU-145. Put plainly: Antiproliferative activity against human DU-145 cells assessed as reduction in cell viability by MTT assay. In kind it is functional, cell-based.

≈ marks a conversion by molar mass, not a printed value. Where a name gives a salt, the structure may show the parent alone.

Chain of Poly [ADP-ribose] polymerase 1 (P09874 whole entry): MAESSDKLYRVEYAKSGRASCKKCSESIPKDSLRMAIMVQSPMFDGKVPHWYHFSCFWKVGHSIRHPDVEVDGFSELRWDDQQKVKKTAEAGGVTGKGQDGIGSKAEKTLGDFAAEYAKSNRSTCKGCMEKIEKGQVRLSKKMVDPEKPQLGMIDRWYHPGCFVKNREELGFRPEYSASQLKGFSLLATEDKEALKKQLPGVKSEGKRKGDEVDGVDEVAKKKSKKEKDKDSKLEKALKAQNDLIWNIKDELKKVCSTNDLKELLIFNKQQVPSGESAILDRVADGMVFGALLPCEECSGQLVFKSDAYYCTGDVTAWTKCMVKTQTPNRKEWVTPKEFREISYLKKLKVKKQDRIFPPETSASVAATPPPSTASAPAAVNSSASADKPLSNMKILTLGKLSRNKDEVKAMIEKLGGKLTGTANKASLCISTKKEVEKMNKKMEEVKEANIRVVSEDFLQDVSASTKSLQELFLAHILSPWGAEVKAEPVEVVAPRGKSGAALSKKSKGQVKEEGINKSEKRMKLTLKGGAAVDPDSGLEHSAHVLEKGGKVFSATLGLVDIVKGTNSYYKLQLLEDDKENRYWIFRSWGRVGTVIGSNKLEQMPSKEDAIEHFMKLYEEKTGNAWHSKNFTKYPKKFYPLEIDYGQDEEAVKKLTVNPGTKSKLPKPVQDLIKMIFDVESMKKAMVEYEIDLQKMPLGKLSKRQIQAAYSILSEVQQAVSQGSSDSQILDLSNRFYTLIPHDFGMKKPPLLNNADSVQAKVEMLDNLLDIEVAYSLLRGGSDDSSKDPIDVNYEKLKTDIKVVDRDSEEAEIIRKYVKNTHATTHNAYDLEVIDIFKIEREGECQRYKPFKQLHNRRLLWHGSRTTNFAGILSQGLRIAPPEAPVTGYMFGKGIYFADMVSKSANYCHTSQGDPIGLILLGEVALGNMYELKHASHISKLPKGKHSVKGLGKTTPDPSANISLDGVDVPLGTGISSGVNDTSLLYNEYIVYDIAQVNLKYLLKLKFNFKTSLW
Chain of Epidermal growth factor receptor (P00533 whole entry): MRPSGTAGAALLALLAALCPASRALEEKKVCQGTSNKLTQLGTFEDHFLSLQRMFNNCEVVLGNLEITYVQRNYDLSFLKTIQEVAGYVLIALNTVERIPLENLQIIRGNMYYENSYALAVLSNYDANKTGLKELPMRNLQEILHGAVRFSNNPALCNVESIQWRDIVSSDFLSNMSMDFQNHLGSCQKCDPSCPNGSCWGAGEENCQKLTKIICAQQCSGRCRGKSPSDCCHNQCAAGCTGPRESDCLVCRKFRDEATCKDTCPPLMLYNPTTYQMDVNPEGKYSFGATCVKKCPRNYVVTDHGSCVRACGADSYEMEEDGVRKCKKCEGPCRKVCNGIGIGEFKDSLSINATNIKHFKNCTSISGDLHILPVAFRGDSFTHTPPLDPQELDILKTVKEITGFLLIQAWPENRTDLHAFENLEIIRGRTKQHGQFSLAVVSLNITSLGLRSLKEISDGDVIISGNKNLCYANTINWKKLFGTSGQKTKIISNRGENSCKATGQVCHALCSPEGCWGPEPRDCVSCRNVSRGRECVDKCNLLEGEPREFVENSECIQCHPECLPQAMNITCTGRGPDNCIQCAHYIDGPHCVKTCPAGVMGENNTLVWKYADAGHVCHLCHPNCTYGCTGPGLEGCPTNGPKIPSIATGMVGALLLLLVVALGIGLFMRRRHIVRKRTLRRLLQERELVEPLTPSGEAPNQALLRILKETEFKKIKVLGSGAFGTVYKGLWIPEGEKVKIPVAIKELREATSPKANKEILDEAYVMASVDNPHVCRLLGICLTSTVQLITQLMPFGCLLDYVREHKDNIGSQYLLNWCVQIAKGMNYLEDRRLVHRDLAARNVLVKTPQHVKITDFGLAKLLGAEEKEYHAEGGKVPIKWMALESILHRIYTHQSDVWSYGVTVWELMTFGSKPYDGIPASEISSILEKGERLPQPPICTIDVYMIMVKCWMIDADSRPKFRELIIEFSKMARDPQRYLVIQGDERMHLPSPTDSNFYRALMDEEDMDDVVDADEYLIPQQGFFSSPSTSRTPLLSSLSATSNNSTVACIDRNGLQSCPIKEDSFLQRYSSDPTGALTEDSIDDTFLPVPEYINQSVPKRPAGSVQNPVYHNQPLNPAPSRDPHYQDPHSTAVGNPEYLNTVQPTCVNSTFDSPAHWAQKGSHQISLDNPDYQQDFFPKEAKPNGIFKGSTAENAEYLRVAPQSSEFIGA

One may read the LD50 as the dose expected to kill half of the subjects tested. Turning to `Cc1noc(C)c1-c1cc(Cc2n[nH]c(=O)c3ccccc23)cc(NC(=O)c2ccccc2C(F)(F)F)c1`, in series [1], the LD50 was determined as 500 mg/kg.
As usually defined, the IC50 is the concentration at which inhibition is half-maximal. Regarding `COc1c(Cl)cc(-c2noc(-c3cn(Cc4cc(-c5cc(Cl)cc(Cl)c5)no4)c4ccccc34)n2)cc1Cl`, the results for the IC50 (in [2]; with MCF7 [3]) were 200 nM and 2160 nM, respectively.
For the compound `CC(=O)c1c(O)c(C)c(O)c2c1OC1=Cc3onc(C)c3C(=O)[C@@]12C`, the Activity with MCF7 [4] stood at 80%.
For `COc1ccc(-c2nnc(-c3cncc(-c4cc(-c5nccs5)on4)c3)o2)cc1`, in the series on PC-3 [5], the IC50 was 10 nM.
Turning to `COc1ccc(-c2noc(-c3cccs3)c2C(F)(F)F)cc1OC`, the IC50 in the series on MCF7 [6], with 4T1 and with PC-3 [7] was 2630 nM throughout.
For the compound `Cc1cc(C[C@@H]2C[C@H]3C(=O)N(C)C4(C[C@H](C)CC[C@H]4C(C)C)N3O2)c(O)c(-n2nc3ccccc3n2)c1` (stereo partly drawn), the LD50 in series [1] is 1000 mg/kg.
For the compound `c1cnoc1` [ISOXAZOLE], the IC50 in series [8] came to 10000 nM.
Take `Cc1ccccc1COc1ccc(-c2noc(C)c2-c2ccc(Cl)cc2)cc1`: the 50% inhibitory concentration (IC50) with HepG2 was found to be 770 nM.
For `COc1cc(NC(=O)c2cc(-c3c[nH]c4ccccc34)no2)cc(OC)c1OC`, in the series with Huh-7, the IC50 turned out to be 700 nM.
`c1csc(-c2cc(-c3cncc(-c4nnc(-c5nccs5)o4)c3)no2)n1`: in the series with PC-3 [5], the IC50 was 10 nM.
The same measure, in the same setting: in the case of `COc1cc(-c2nnc(-c3cncc(-c4cc(-c5nccs5)on4)c3)o2)cc(OC)c1OC` it was 10 nM.
`COc1ccc(-c2noc(NC(=O)c3ccc(F)c(F)c3)c2C#N)c(OC)c1` registered a concentration for half-maximal inhibition (IC50) against Heat shock protein HSP90 of 14000 nM.
Consider `Cc1onc([C@@H]2CN(C)C3(C(=O)c4ccccc4C3=O)[C@@]23C(=O)N(C)c2cc(Br)ccc23)c1[N+](=O)[O-]`, for which the IC50 in the series with K562 was found to be 20300 nM.
In general, GI50 refers to the concentration at which growth is held to half of that of the control. For `CCc1cc(-c2oncc2-c2ccc(OC)cc2)c(O)cc1OC`, the IC50 in the series with MDA-MB-231 [9] is 100 nM. Also, halving of growth in the series with MDA-MB-231 [10] (GI50) required 25000 nM.
Turning to `COc1cccc2c1C(=O)c1c(O)c3c(c(O)c1C2=O)C[C@@](O)(C(=O)CO)C[C@@H]3O[C@H]1C[C@H](N)[C@H](O)[C@H](C)O1` [DOXORUBICIN HYDROCHLORIDE], the GI50 in the series on MCF7 [11] and with PC-3 [12] was 1000 nM throughout.
For the compound `CCCCCCCCCCc1cc(CCC(N)(CO)CO)on1`, the IC50 in [8] came out at 7500 nM.
As to `COc1ccc(/C=C/C(=O)c2ccno2)c(F)c1OC`, in the series on DU-145, the half-maximal inhibitory concentration (IC50) was found to be 5 µg/mL (≈ 18 µM).
As to `c1cc(-c2nnc(-c3cncc(-c4cc(-c5nccs5)on4)c3)o2)ccn1`, the half-maximal inhibitory concentration (IC50) in the series on PC-3 [5] is 10 nM.
